The values that follow are results of earlier work, collected in patent publication US20080293724A1, “Methods Using Hydralazine Compounds and Isosorbide Dinitrate or Isosorbide Mononitrate” (NITROMED, INC., priority 2006, published 2008).

The structures appear in SMILES notation. Where a name gives a salt, the structure may show the parent alone.

As to `O=[N+]([O-])O[C@H]1CO[C@H]2[C@@H]1OC[C@H]2O[N+](=O)[O-]` [isosorbide dinitrate, 1,4,3,6-dianhydro-D-glucitol-2,5-dinitrate], the solubility in water entry is “sparingly soluble”. Moreover, the “solubility in organic solvents” value (organic solvents such as ethanol, ether and chloroform) is reported as “freely soluble”.

With `NNc1nncc2ccccc12` [Hydralazine hydrochloride, hydralazine hydrochloride], the solubility in water entry is “soluble”. Besides, the solubility in alcohol entry (alcohol) was “slightly soluble”. Besides, the solubility in ether entry (ether) was “very slightly soluble”.
